# Laboratory results published in patent US20250197403A1, “HETEROARYL COMPOUNDS FOR TREATMENT OF COMPLEMENT FACTOR D MEDIATED DISORDERS” (Achillion Pharmaceuticals, Inc., priority 2020, published 2025).
# pIC50: −log10 of the molar value.
# Target: Human Factor D (Homo sapiens (Human), UniProt P00746)
# Assay: Human Factor D Assay
# Format: biochemical
# Settings: Human Factor D 80 nM, substrate Z-L-Lys-SBzl, assay according to Example 3
# Procedure, shortened: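 Serum-purified factor D (80 nM final) preincubated with compound 5 min at room temperature in 50 mM Tris, 1M NaCl, pH 7.5. Z-L-Lys-SBzl substrate and DTNB added at 100 μM each; A405 read every 30 s for 30 min. IC50 from nonlinear regression of reaction rates versus compound concentration.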
# Sequence of Human Factor D (P00746 26-253): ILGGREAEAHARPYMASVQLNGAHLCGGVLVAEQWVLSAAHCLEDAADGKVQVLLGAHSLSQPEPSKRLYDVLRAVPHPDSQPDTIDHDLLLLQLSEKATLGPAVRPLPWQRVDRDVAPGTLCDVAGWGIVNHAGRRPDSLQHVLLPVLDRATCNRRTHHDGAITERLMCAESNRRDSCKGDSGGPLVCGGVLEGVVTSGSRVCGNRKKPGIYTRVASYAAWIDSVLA
row,SMILES,pIC50
1,"CC(=O)c1cn(CC(=O)N2[C@H](C(=O)Nc3nc(C(F)(F)F)cc(F)c3C)C[C@@]3(C)C[C@@H]23)c2c(C)cc(-c3cnc4cc(C)nn4c3)cc12 [Compound 12, (1R,3S,5R)-2-(2-(3-acetyl-7-methyl-5-(2-methylpyr-azolo[1,5-a]pyrimidin-6-yl)-1H-indol-1-yl)acetyl)-N-(4-fluoro-3-methyl-6-(trifluoromethyl)pyridin-2-yl)-5-methyl-2-azabicyclo [3.1.0]hexane-3-carbox-amide]",> 6.00
2,"CC(=O)c1cn(CC(=O)N2[C@H](C(=O)Nc3nc(C(F)(F)F)ccc3Cl)C[C@@]3(C)C[C@@H]23)c2c(C)nc(-c3cnc4cc(C)nn4c3)cc12 [Compound 24, (1R,3S,5R)-2-(2-(3-acetyl-7-methyl-5-(2-methylpyr-azolo[1,5-a]pyrimidin-6-yl)-1H-pyrrolo[2,3-c]pyr-idin-1-yl)acetyl)-N-(3-chloro-6-(trifluoromethyl)-pyridin-2-yl)-5-methyl-2-azabicyclo[3.1.0]hexane-3-carboxamide]",> 6.00
3,"CC(=O)c1cn(CC(=O)N2C[C@@](F)(CF)C[C@H]2C(=O)Nc2nc(C(F)(F)F)ccc2C)c2c(C)cc(-c3ccc4nc(C)nn4c3)cc12 [Compound 11, (2S,4R)-1-(2-(3-acetyl-7-methyl-5-(2-methyl-[1,2,4]triazolo[1,5-a]pyr-idin-6-yl)-1H-indol-1-yl)-acetyl)-4-fluoro-4-(fluoro-methyl)-N-(3-methyl-6-(trifluoromethyl)pyridin-2-yl)pyrrolidine-2-carbox-amide]",> 6.00
4,"CC(=O)c1nn(CC(=O)N2[C@H](C(=O)Nc3nc(Br)c(F)cc3C)C[C@@]3(C)C[C@@H]23)c2c(C)cc(-c3cnc([C@H](C)O)nc3)cc12 [Compound 17, (1R,3S,5R)-2-(2-(3-acetyl-5-(2-((S)-1-hydroxyethyl)-pyrimidin-5-yl)-7-methyl-1H-indazol-1-yl)acetyl)-N-(6-bromo-5-fluoro-3-meth-ylpyridin-2-yl)-5-methyl-2-azabicyclo[3.1.0]hexane-3-carboxamide]",> 6.00
5,"[2H]C([2H])([2H])OC([2H])([2H])c1ccc(C(F)(F)F)nc1NC(=O)[C@@H]1C[C@@]2(C)C[C@H]2N1C(=O)Cn1cc(C(C)=O)c2cc(-c3cnc4cc(C)nn4c3)cc(C)c21 [Compound 80, (1R,3S,5R)-2-(2-(3-acetyl-7-methyl-5-(2-methylpyr-azolo[1,5-a]pyrimidin-6-yl)-1H-indol-1-yl)acetyl)-N-(3-((methoxy-d3)meth-yl-d2)-6-(trifluoromethyl)-pyridin-2-yl)-5-methyl-2-azabicyclo[3.1.0]hexane-3-carboxamide]",> 6.00
6,"CC(=O)c1cn(CC(=O)N2[C@H](C(=O)Nc3nc(C(F)(F)F)c(F)cc3C)C[C@@]3(C)C[C@@H]23)c2c(C)cc(-c3cnc(C)nc3)cc12 [Compound 71, (1R,3S,5R)-2-(2-(3-acetyl-7-methyl-5-(2-methylpyr-imidin-5-yl)-1H-indol-1-yl)acetyl)-N-(5-fluoro-3-methyl-6-(trifluorometh-yl)pyridin-2-yl)-5-methyl-2-azabicyclo[3.1.0]hexane-3-carboxamide]",> 6.00
7,"CC(=O)c1cn(CC(=O)N2[C@H](C(=O)N[C@@H](C)C(F)=C(C)C)C[C@@]3(C)C[C@@H]23)c2c(C)nc(-c3cnc4cc(C)nn4c3)cc12 [Compound 32, (1R,3S,5R)-2-(2-(3-acetyl-7-methyl-5-(2-methylpyr-azolo[1,5-a]pyrimidin-6-yl)-1H-pyrrolo[2,3-c]pyr-idin-1-yl)acetyl)-N-((S)-3-fluoro-4-methylpent-3-en-2-yl)-5-methyl-2-azabi-cyclo[3.1.0]hexane-3-car-boxamide]",> 6.00
8,"CC(=O)c1cn(CC(=O)N2C[C@@](F)(CF)C[C@H]2C(=O)Nc2nc(C(F)(F)F)ccc2C)c2c(C)nc(-c3cnc4cc(C)nn4c3)cc12 [Compound 25, (2S,4R)-1-(2-(3-acetyl-7-methyl-5-(2-methylpyr-azolo[1,5-a]pyrimidin-6-yl)-1H-pyrrolo[2,3-c]pyr-idin-1-yl)acetyl)-4-fluoro-4-(fluoromethyl)-N-(3-methyl-6-(trifluorometh-yl)pyridin-2-yl)pyrroli-dine-2-carboxamide]",> 6.00
9,"CC(=O)c1cn(CC(=O)N2C[C@H]3C[C@H]3[C@H]2C(=O)Nc2nc(C(F)(F)F)ccc2Cl)c2c(C)cc(-c3cnc4cc(C)nn4c3)cc12 [Compound 6, (1R,2S,5S)-3-(2-(3-acetyl-7-methyl-5-(2-methylpyr-azolo[1,5-a]pyrimidin-6-yl)-1H-indol-1-yl)acetyl)-N-(3-chloro-6-(trifluoro-methyl)pyridin-2-yl)-3-azabicyclo[3.1.0]hexane-2-carboxamide]",> 6.00
10,"CC(=O)c1cn(CC(=O)N2[C@H](C(=O)Nc3nc(C(F)(F)F)ncc3C)C[C@@]3(C)C[C@@H]23)c2c(C)cc(-c3cnc(C)nc3)cc12 [Compound 57, (1R,3S,5R)-2-(2-(3-acetyl-7-methyl-5-(2-methylpyr-imidin-5-yl)-1H-indol-1-yl)acetyl)-5-methyl-N-(5-methyl-2-(trifluorometh-yl)pyrimidin-4-yl)-2-aza-bicyclo[3.1.0]hexane-3-carboxamide]",> 6.00
11,"CC(=O)c1cn(CC(=O)N2[C@H](C(=O)Nc3nc(C(F)(F)F)c(F)cc3C)C[C@@]3(C)C[C@@H]23)c2c(C)cc(-c3cnc4cc(C)nn4c3)cc12 [Compound 16, (1R,3S,5R)-2-(2-(3-acetyl-7-methyl-5-(2-methylpyr-azolo[1,5-a]pyrimidin-6-yl)-1H-indol-1-yl)acetyl)-N-(5-fluoro-3-methyl-6-(trifluoromethyl)pyridin-2-yl)-5-methyl-2-azabicyclo [3.1.0]hexane-3-carbox-amide]",> 6.00
